{"source": "ChEMBL document CHEMBL2016468", "about": "“Development of rationally designed DNA N6 adenine methyltransferase inhibitors” (Bioorg Med Chem Lett, 2012)", "note": "pIC50: −log10 of the molar value.", "data": [{"assay": "Inhibition of Yersinia pestis Dam using oligonucleotide 1 as substrate after 2000 to 3000 sec by micro plate reader based real-time break-light assay", "values": [{"smiles": "Nc1ncnc2c1ncn2[C@@H]1O[C@H](CNCC[C@H](N)C(=O)O)[C@@H](O)[C@H]1O", "pIC50": 4.08}, {"smiles": "Nc1ncnc2c1ncn2[C@@H]1O[C@H](CN(CC[C@H](N)C(=O)O)Cc2ccccn2)[C@@H](O)[C@H]1O", "pIC50": "< 3.60"}, {"smiles": "Nc1ncnc2c1ncn2[C@@H]1O[C@H](CN(CCCc2ccccn2)CC[C@H](N)C(=O)O)[C@@H](O)[C@H]1O", "pIC50": "< 3.60"}, {"smiles": "Nc1ncnc2c1ncn2[C@@H]1O[C@H](CN(CCc2c[nH]c3ccccc23)CC[C@H](N)C(=O)O)[C@@H](O)[C@H]1O", "pIC50": 4.91}, {"smiles": "Nc1ncnc2c1ncn2[C@@H]1O[C@H](CN(CCCc2c[nH]c3ccccc23)CC[C@H](N)C(=O)O)[C@@H](O)[C@H]1O", "pIC50": 4.88}, {"smiles": "Nc1ncnc2c1ncn2[C@@H]1O[C@H](CN(CCc2coc3ccccc23)CC[C@H](N)C(=O)O)[C@@H](O)[C@H]1O", "pIC50": 4.41}, {"smiles": "Nc1ncnc2c1ncn2[C@@H]1O[C@H](CN(CCc2csc3ccccc23)CC[C@H](N)C(=O)O)[C@@H](O)[C@H]1O", "pIC50": 4.54}, {"smiles": "Nc1ncnc2c1ncn2[C@@H]1O[C@H](CN(CCc2cccc3[nH]ccc23)CC[C@H](N)C(=O)O)[C@@H](O)[C@H]1O", "pIC50": 4.50}, {"smiles": "Nc1ncnc2c1ncn2[C@@H]1O[C@H](CSCC[C@H](N)C(=O)O)[C@@H](O)[C@H]1O", "note": "[S-ADENOSYLHOMOCYSTEINE]", "pIC50": 4.92}]}]}
